PubChem BioAssay (NCI)
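Protocol summary: plate cells (96-well), add compound at 5 concentrations, incubate 48 h, interpolate endpoints linearly. TGI: concentration producing complete growth inhibition.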

Tests used:
Experiment in all cases: inhibition of tumour cell growth, NCI panel, 48 h
[1] = tested on: 786-0 renal
[2] = tested on: A498 renal
[3] = tested on: A549 NSCLC
[4] = tested on: ACHN renal
[5] = tested on: BT-549 breast
[6] = tested on: CAKI-1 renal
[7] = tested on: CCRF-CEM leukemia
[8] = tested on: COLO 205 colon
[9] = tested on: DU-145 prostate
[10] = tested on: EKVX NSCLC
[11] = tested on: HCC-2998 colon
[12] = tested on: HCT-116 colon
[13] = tested on: HCT-15 colon
[14] = tested on: HOP-62 NSCLC
[15] = tested on: HS 578T breast
[16] = tested on: HT29 colon
[17] = tested on: IGROV1 ovarian
[18] = tested on: K-562 leukemia
[19] = tested on: KM12 colon
[20] = tested on: M14 melanoma
[21] = tested on: MALME-3M melanoma
[22] = tested on: MCF7 breast
[23] = tested on: MDA-MB-231 breast
[24] = tested on: MDA-MB-435
[25] = tested on: MDA-N
[26] = tested on: MOLT-4 leukemia
[27] = tested on: NCI-H226 lung
[28] = tested on: NCI-H23 lung
[29] = tested on: NCI-H460 lung
[30] = tested on: NCI/ADR-RES ovarian
[31] = tested on: OVCAR-3 ovarian
[32] = tested on: OVCAR-4 ovarian
[33] = tested on: OVCAR-5 ovarian
[34] = tested on: OVCAR-8 ovarian
[35] = tested on: PC-3 prostate
[36] = tested on: RPMI-8226 leukemia
[37] = tested on: RXF 393 renal
[38] = tested on: SF-268 CNS
[39] = tested on: SF-295 CNS
[40] = tested on: SK-MEL-2 melanoma
[41] = tested on: SK-MEL-5 melanoma
[42] = tested on: SK-OV-3 ovarian
[43] = tested on: SN12C renal
[44] = tested on: SNB-19 CNS
[45] = tested on: SNB-75 CNS
[46] = tested on: SR leukemia
[47] = tested on: SW-620 colon
[48] = tested on: T-47D breast
[49] = tested on: U251 CNS
[50] = tested on: UACC-257 melanoma
[51] = tested on: UACC-62 melanoma
[52] = tested on: UO-31 renal
[53] = tested on: HL-60(TB) leukemia
[54] = tested on: LOX IMVI melanoma
[55] = tested on: NCI-H522 lung
[56] = tested on: SF-539 CNS
[57] = tested on: SK-MEL-28 melanoma
[58] = tested on: TK-10 renal

**Q.** Which TGI [1] does the source give for `CCOC(=O)c1nnsc1NC(=O)NCCCCCCn1c(=O)n(CCCCCCNC(=O)Nc2snnc2C(=O)OCC)c(=O)n(CCCCCCNC(=O)Nc2snnc2C(=O)OCC)c1=O` here?
**A.** 30.3 µM

**Q.** And the TGI [2]?
**A.** > 100 µM

**Q.** What about the TGI [3] of the same molecule?
**A.** > 100 µM

**Q.** What about the TGI [4] of the same molecule?
**A.** > 100 µM

**Q.** What about the TGI [5] of the same molecule?
**A.** > 100 µM

**Q.** And the TGI [6]?
**A.** > 100 µM

**Q.** And the TGI [7]?
**A.** > 100 µM

**Q.** And the TGI [8]?
**A.** > 100 µM

**Q.** And the TGI [9]?
**A.** > 100 µM

**Q.** What about the TGI [10] of the same molecule?
**A.** > 100 µM

**Q.** And the TGI [11]?
**A.** > 100 µM

**Q.** And the TGI [12]?
**A.** > 100 µM

**Q.** What about the TGI [13] of the same molecule?
**A.** > 100 µM

**Q.** And the TGI [14]?
**A.** 69.8 µM

**Q.** What about the TGI [15] of the same molecule?
**A.** 50 µM

**Q.** And the TGI [16]?
**A.** > 100 µM

**Q.** What about the TGI [17] of the same molecule?
**A.** > 100 µM

**Q.** And the TGI [18]?
**A.** > 100 µM

**Q.** And the TGI [19]?
**A.** > 100 µM

**Q.** What about the TGI [20] of the same molecule?
**A.** > 100 µM

**Q.** What about the TGI [21] of the same molecule?
**A.** 53.2 µM

**Q.** And the TGI [22]?
**A.** > 100 µM

**Q.** What about the TGI [23] of the same molecule?
**A.** 41.1 µM

**Q.** What about the TGI [24] of the same molecule?
**A.** > 100 µM

**Q.** And the TGI [25]?
**A.** > 100 µM

**Q.** And the TGI [26]?
**A.** > 100 µM

**Q.** What about the TGI [27] of the same molecule?
**A.** 47.7 µM

**Q.** What about the TGI [28] of the same molecule?
**A.** 90.4 µM

**Q.** And the TGI [29]?
**A.** 44.3 µM

**Q.** What about the TGI [30] of the same molecule?
**A.** > 100 µM

**Q.** What about the TGI [31] of the same molecule?
**A.** > 100 µM

**Q.** What about the TGI [32] of the same molecule?
**A.** > 100 µM

**Q.** What about the TGI [33] of the same molecule?
**A.** > 100 µM

**Q.** And the TGI [34]?
**A.** > 100 µM

**Q.** And the TGI [35]?
**A.** > 100 µM

**Q.** What about the TGI [36] of the same molecule?
**A.** 46.4 µM

**Q.** What about the TGI [37] of the same molecule?
**A.** 86.2 µM

**Q.** And the TGI [38]?
**A.** 48.4 µM

**Q.** And the TGI [39]?
**A.** > 100 µM

**Q.** What about the TGI [40] of the same molecule?
**A.** > 100 µM

**Q.** What about the TGI [41] of the same molecule?
**A.** > 100 µM

**Q.** What about the TGI [42] of the same molecule?
**A.** > 100 µM

**Q.** And the TGI [43]?
**A.** > 100 µM

**Q.** What about the TGI [44] of the same molecule?
**A.** 38.2 µM

**Q.** What about the TGI [45] of the same molecule?
**A.** 83 µM

**Q.** What about the TGI [46] of the same molecule?
**A.** > 100 µM

**Q.** What about the TGI [47] of the same molecule?
**A.** > 100 µM

**Q.** What about the TGI [48] of the same molecule?
**A.** > 100 µM

**Q.** What about the TGI [49] of the same molecule?
**A.** 36.8 µM

**Q.** What about the TGI [50] of the same molecule?
**A.** > 100 µM

**Q.** And the TGI [51]?
**A.** 35.1 µM

**Q.** What about the TGI [52] of the same molecule?
**A.** > 100 µM

**Q.** What does the source list for `C[C@@H](c1ccccc1)N1CN(C(=O)OCc2ccccc2)C(CO)C1=O` (some centres not stated)?
**A.** TGI [1]: > 100 µM; TGI [3]: > 100 µM; TGI [4]: > 100 µM; TGI [5]: > 100 µM; TGI [6]: > 100 µM; TGI [7]: > 100 µM; TGI [8]: > 100 µM; TGI [9]: > 100 µM; TGI [10]: > 100 µM; TGI [11]: > 100 µM; TGI [12]: > 100 µM; TGI [13]: > 100 µM; TGI [53]: > 100 µM; TGI [14]: > 100 µM; TGI [15]: > 100 µM; TGI [16]: > 100 µM; TGI [17]: > 100 µM; TGI [18]: > 100 µM; TGI [19]: > 100 µM; TGI [54]: > 100 µM; TGI [20]: > 100 µM; TGI [21]: > 100 µM; TGI [22]: > 100 µM; TGI [23]: > 100 µM; TGI [24]: > 100 µM; TGI [25]: > 100 µM; TGI [26]: > 100 µM; TGI [27]: > 100 µM; TGI [28]: > 100 µM; TGI [29]: > 100 µM; TGI [55]: > 100 µM; TGI [30]: > 100 µM; TGI [31]: > 100 µM; TGI [32]: > 100 µM; TGI [33]: > 100 µM; TGI [34]: > 100 µM; TGI [35]: > 100 µM; TGI [36]: > 100 µM; TGI [37]: > 100 µM; TGI [38]: > 100 µM; TGI [39]: > 100 µM; TGI [56]: > 100 µM; TGI [40]: > 100 µM; TGI [57]: > 100 µM; TGI [41]: > 100 µM; TGI [42]: > 100 µM; TGI [43]: > 100 µM; TGI [44]: > 100 µM; TGI [45]: > 100 µM; TGI [46]: > 100 µM; TGI [47]: > 100 µM; TGI [48]: > 100 µM; TGI [58]: > 100 µM; TGI [49]: > 100 µM; TGI [50]: > 100 µM; TGI [51]: > 100 µM

**Q.** Which TGI [1] does the source give for `COc1ccc(OC)c(C(=O)c2cccc(C(=O)c3cc(OC)ccc3OC)n2)c1` here?
**A.** > 100 µM

**Q.** And the TGI [3]?
**A.** > 100 µM

**Q.** And the TGI [4]?
**A.** > 100 µM

**Q.** And the TGI [5]?
**A.** 79.2 µM

**Q.** What about the TGI [6] of the same molecule?
**A.** > 100 µM

**Q.** What about the TGI [7] of the same molecule?
**A.** > 100 µM

**Q.** What about the TGI [8] of the same molecule?
**A.** > 100 µM

**Q.** What about the TGI [9] of the same molecule?
**A.** > 100 µM

**Q.** What about the TGI [10] of the same molecule?
**A.** > 100 µM

**Q.** What about the TGI [11] of the same molecule?
**A.** > 100 µM

**Q.** And the TGI [12]?
**A.** > 100 µM

**Q.** What about the TGI [13] of the same molecule?
**A.** > 100 µM

**Q.** And the TGI [53]?
**A.** 71.9 µM

**Q.** What about the TGI [14] of the same molecule?
**A.** > 100 µM

**Q.** And the TGI [15]?
**A.** 84.5 µM

**Q.** And the TGI [16]?
**A.** > 100 µM

**Q.** And the TGI [17]?
**A.** > 100 µM

**Q.** What about the TGI [18] of the same molecule?
**A.** > 100 µM

**Q.** What about the TGI [19] of the same molecule?
**A.** > 100 µM

**Q.** And the TGI [54]?
**A.** > 100 µM

**Q.** And the TGI [20]?
**A.** > 100 µM

**Q.** What about the TGI [21] of the same molecule?
**A.** > 100 µM

**Q.** And the TGI [22]?
**A.** 67.5 µM

**Q.** What about the TGI [23] of the same molecule?
**A.** > 100 µM

**Q.** What about the TGI [25] of the same molecule?
**A.** 62.6 µM

**Q.** And the TGI [26]?
**A.** > 100 µM

**Q.** What about the TGI [27] of the same molecule?
**A.** 74.9 µM

**Q.** And the TGI [28]?
**A.** 74 µM

**Q.** And the TGI [29]?
**A.** > 100 µM

**Q.** What about the TGI [55] of the same molecule?
**A.** > 100 µM

**Q.** What about the TGI [30] of the same molecule?
**A.** > 100 µM

**Q.** And the TGI [32]?
**A.** > 100 µM

**Q.** What about the TGI [33] of the same molecule?
**A.** > 100 µM

**Q.** What about the TGI [34] of the same molecule?
**A.** > 100 µM

**Q.** What about the TGI [35] of the same molecule?
**A.** > 100 µM

**Q.** And the TGI [37]?
**A.** 43.4 µM

**Q.** What about the TGI [38] of the same molecule?
**A.** > 100 µM

**Q.** What about the TGI [39] of the same molecule?
**A.** 74.5 µM

**Q.** What about the TGI [56] of the same molecule?
**A.** > 100 µM

**Q.** What about the TGI [40] of the same molecule?
**A.** 70.9 µM

**Q.** What about the TGI [57] of the same molecule?
**A.** > 100 µM

**Q.** And the TGI [41]?
**A.** 50.5 µM

**Q.** And the TGI [42]?
**A.** > 100 µM

**Q.** And the TGI [43]?
**A.** > 100 µM

**Q.** And the TGI [44]?
**A.** > 100 µM

**Q.** And the TGI [45]?
**A.** 59.4 µM

**Q.** What about the TGI [46] of the same molecule?
**A.** > 100 µM

**Q.** And the TGI [47]?
**A.** > 100 µM

**Q.** And the TGI [48]?
**A.** > 100 µM

**Q.** And the TGI [58]?
**A.** > 100 µM

**Q.** And the TGI [49]?
**A.** > 100 µM

**Q.** And the TGI [50]?
**A.** > 100 µM

**Q.** And the TGI [51]?
**A.** > 100 µM

**Q.** What about the TGI [52] of the same molecule?
**A.** 85.9 µM
